Common to all, as to assay type: functional
Assay [1] has as its system Mythimna separata. Kind of assay: Insecticidal activity against Mythimna separata at 200 mg/kg.
The test system of assay [2] is Mythimna separata. Kind of assay: Insecticidal activity against Mythimna separata at 25 mg/kg.
In assay [3] the test system is Mythimna separata. The assay can be described thus: Insecticidal activity against Mythimna separata at 100 mg/kg.
The subject of assay [4] is Mythimna separata. Kind of assay: Insecticidal activity against Mythimna separata at 50 mg/kg.
For assay [5], the system named is Tetranychus urticae. Kind of assay: Acarcidal activity against Tetranychus urticae larvae at 200 mg/kg.
Assay [6] has as its system Mythimna separata. The assay can be described thus: Insecticidal activity against Mythimna separata at 10 mg/kg.
The test system of assay [7] is Tetranychus urticae. Kind of assay: Acarcidal activity against Tetranychus urticae eggs at 200 mg/kg.
Assay [8] deals with Mythimna separata. The assay can be described thus: Insecticidal activity against Mythimna separata at 500 mg/kg.
Assay [9] deals with Nephotettix cincticeps. The assay can be described thus: Insecticidal activity against Nephotettix cincticeps at 500 mg/kg.

`C/C(=N/OCc1ccc(NC(=O)NC(=O)c2c(F)cccc2F)cc1)c1ccc2c(c1)OCO2`: the Activity in assay [1] amounted to 100%; in assay [2] it was 70%; in assay [3], 100%; in [4] it was 90%; in assay [5] it was 7%; in [6] it was 15%. In addition, the figures for the Activity in [7] and in [8] were 10% and 100%, respectively.

Regarding `O=C(NC(=O)c1c(F)cccc1F)Nc1ccc(CO/N=C\c2ccc3c(c2)OCO3)cc1`, the Activity in assay [1] is 100%; in assay [2], 100%; in assay [3], 100%; in assay [4], 100%; in assay [5], 10%; in [6], 50%. For the same compound, the Activity in assay [9] turned out to be 33.3%; in assay [7], 11%; in assay [8], 100%.

With `CC(C)(C)c1ccc(/C=N\OCc2ccc(NC(=O)NC(=O)c3c(F)cccc3F)cc2)cc1`, the Activity is on record as 0% in assay [1], 18.2% in assay [9] and 30% in [8].

`CCCCS/C(=N/OCc1ccc(NC(=O)NC(=O)c2c(F)cccc2F)cc1)c1ccc(C(C)(C)C)cc1`: the Activity in assay [1] worked out at 65%; in assay [2] it was 0%; in assay [3] it was 40%; in [4], 25%; in assay [6], 0%; in assay [9] it was 56.3%. This compound also displayed an Activity in assay [8] of 80%.

On to `C/C(=N/OCc1ccc(NC(=O)NC(=O)c2c(F)cccc2F)cc1)n1cncn1`, for which the Activity in assay [1] came out at 100%; in assay [2], 0%; in assay [3] it was 100%; in assay [4] it was 50%; in assay [5], 10%; in [6], 0%. In addition, the Activity in assay [9] stood at 19.2%; in assay [7] it was 12%; in [8], 100%.

Take `N#C/C(=N/OCc1ccc(NC(=O)NC(=O)c2c(F)cccc2F)cc1)c1ccccc1`: the Activity in assay [1] was 0%; in assay [2], 0%; in [3] it was 0%; in assay [4], 0%; in assay [6], 0%; in assay [9] it was 50%. The compound also showed an Activity in [8] of 25%.

Turning to `O=C(NC(=O)c1c(F)cccc1F)Nc1ccc(CO/N=C(/c2ccc(Cl)cc2)C2CC2)cc1` [FLUCYCLOXURON], the Activity in assay [2] is on record as 100%; in assay [5], 100%; in [6], 100%; in assay [9] it was 42.8%; in [7], 100%.

On to `CCS/C(=N/OCc1ccc(NC(=O)NC(=O)c2c(F)cccc2F)cc1)C(C)C`, for which the Activity in assay [1] was 100%; in [2] it was 0%; in [3] it was 50%; in assay [5], 43%; in assay [6], 0%; in assay [9], 41%. Further, the results for the Activity in assay [7] and in assay [8] were 76% and 100%, respectively.

As to `CC(C)Oc1ccc(/C=N\OCc2ccc(NC(=O)NC(=O)c3c(F)cccc3F)cc2)cc1`, the Activity in assay [8] is 0%.

`Cc1nn(-c2ccccc2)c(Cl)c1/C=N\OCc1ccc(NC(=O)NC(=O)c2c(F)cccc2F)cc1`: the Activity in assay [1] was determined as 40%; in assay [2] it was 0%; in assay [3], 0%; in assay [4], 0%; in [6] it was 0%; in assay [9] it was 62.5%. Further, the Activity in [8] stood at 100%.

Consider `O=C(NC(=O)c1c(F)cccc1F)Nc1ccc(CO/N=C\OCc2ccccc2)cc1`, for which the Activity worked out at 0% in [1], 45.7% in assay [9] and 30% in assay [8].

Consider `Cc1ccc(Oc2c(/C=N\OCc3ccc(NC(=O)NC(=O)c4c(F)cccc4F)cc3)c(C)nn2C)cc1C`, for which the Activity worked out at 0% in [1]; 0% in assay [2]; 0% in assay [3]; 0% in [4]; 0% in assay [6]; 24.3% in assay [9]. Besides, in assay [8], the Activity came to 60%.

For `Cc1cc(C)cc(Oc2c(/C=N\OCc3ccc(NC(=O)NC(=O)c4c(F)cccc4F)cc3)c(C)nn2C)c1`, the Activity in assay [1] turned out to be 100%; in [2], 0%; in assay [3] it was 50%; in assay [4], 0%; in assay [6] it was 0%; in assay [9], 69.7%. In [8], this compound yielded an Activity of 100%.

For the compound `Cc1ccc(Oc2c(/C=N\OCc3ccc(NC(=O)NC(=O)c4c(F)cccc4F)cc3)c(C)nn2C)cc1`, the Activity in assay [1] is 0%; in assay [2] it was 0%; in assay [3], 0%; in assay [4] it was 0%; in assay [6] it was 0%; in [9], 50%. In [8], this compound had an Activity of 30%.

As for `CCCS/C(C)=N\OCc1ccc(NC(=O)NC(=O)c2c(F)cccc2F)cc1`, the Activity in [1] was 15%; in assay [2], 10%; in [3] it was 10%; in assay [6] it was 0%; in assay [8], 75%.
